Reference: PubChem BioAssay (NCI)
Values joined by “and” are separate entries in the source; they are usually repeats but may differ in a detail not shown here. Equal entries are not always repeated.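 Step 1: Grow cells in 96-well plates. Step 2: Expose to compound for 48 hours at 5 concentrations. Step 3: Interpolate endpoints linearly; if unreached, use highest concentration. Here, GI50 denotes the concentration required for 50% inhibition of growth. TGI marks complete inhibition of growth.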

Tests used:
Assay in all cases: inhibition of tumour cell growth, NCI panel, 48 h
OVCAR-3 ovarian = tested on: OVCAR-3 ovarian
NCI-H23 lung = tested on: NCI-H23 lung
UO-31 renal = tested on: UO-31 renal
SN12C renal = tested on: SN12C renal
SNB-19 CNS = tested on: SNB-19 CNS
HT29 colon = tested on: HT29 colon
OVCAR-5 ovarian = tested on: OVCAR-5 ovarian
HCT-15 colon = tested on: HCT-15 colon
PC-3 prostate = tested on: PC-3 prostate
M14 melanoma = tested on: M14 melanoma

Row | SMILES | GI50 (OVCAR-3 ovarian) | TGI (OVCAR-3 ovarian) | GI50 (NCI-H23 lung) | TGI (NCI-H23 lung) | GI50 (UO-31 renal) | TGI (UO-31 renal) | GI50 (SN12C renal) | TGI (SN12C renal) | GI50 (SNB-19 CNS) | TGI (SNB-19 CNS) | GI50 (HT29 colon) | TGI (HT29 colon) | GI50 (OVCAR-5 ovarian) | TGI (OVCAR-5 ovarian) | GI50 (HCT-15 colon) | TGI (HCT-15 colon) | GI50 (PC-3 prostate) | TGI (PC-3 prostate) | TGI (M14 melanoma) | GI50 (M14 melanoma)
1 | CCN(CC)CCOc1ccc(/C(=C(\C)Cc2ccc(OC)cc2)c2ccc(O)cc2)cc1 | 1.68 µM | 3.21 µM | 1.98 µM | 5.08 µM | 1.45 µM | 2.8 µM | 1.53 µM | 3.03 µM | 2.08 µM | 4.77 µM | 1.43 µM | 3.67 µM | 2.36 µM | 6.79 µM | 1.49 µM | 3 µM | 1.54 µM | 3.26 µM | – | –
2 | COc1ccc(C(=O)C(c2ccc(OC)cc2)C2(O)C(=O)Nc3c(Cl)cc(Cl)cc32)cc1 (stereo not drawn) | – | 49.9 µM | – | 38.5 µM | – | 62.2 µM | – | 35.6 µM | – | 56 µM | – | 42.4 µM | – | 40.9 µM | – | 49.8 µM | – | – | 33.6 µM | –
3 | Cc1c(C(=O)/C=C/c2ccc([N+](=O)[O-])cc2)[n+](=O)c2ccccc2n1[O-] | – | > 100 µM | – | 86.7 µM | – | > 100 µM | – | > 100 µM | – | > 100 µM | – | > 100 µM | – | > 100 µM | – | – | – | – | > 100 µM | –
4 | [CH3][Ge]([CH3])([CH2]CC#N)[S]c1ccccc1 | 12.3 µM | 29.1 µM | 18.3 µM | 46.4 µM | 10.5 µM | 22.3 µM | 15.2 µM | 31.6 µM | 18 µM | 37.3 µM | 17.8 µM | 32.9 µM | 17.8 µM | 39.5 µM | 15 µM | 28.2 µM | – | – | 43 µM | 18.8 µM
5 | O=C1NC(c2cccc3ccccc23)Nc2ccc(Cl)cc21 (stereo not drawn) | – | 0.0151 µM and 0.0303 µM | 0.011 µM | 14.9 µM | – | 0.00836 µM | – | 17.9 µM | – | > 100 µM | – | 0.105 µM | 0.0291 µM | 0.085 µM | – | 0.269 µM | – | 0.0148 µM and 0.0143 µM | – | –
6 | C/C(=C\CNc1ncnc2c1ncn2C1CCCCO1)COP(=O)(O)O (stereo not drawn) | – | > 100 µM | – | > 100 µM | – | > 100 µM | – | > 100 µM | – | > 100 µM | – | > 100 µM | – | > 100 µM | – | > 100 µM | – | – | > 100 µM | –
7 | NNC(=O)N/N=C(/CC1(O)C(=O)Nc2ccc(Br)cc21)c1ccccc1 (stereo not drawn) | – | > 100 µM | – | > 100 µM | – | 49.3 µM | – | > 100 µM | – | 46.2 µM | – | > 100 µM | – | – | – | > 100 µM | – | – | > 100 µM | –
8 | O=C1C=C(Nc2cc(Cl)ccc2Cl)c2ccccc2C1=O | – | 63.7 µM | – | 39.3 µM | – | > 100 µM | – | > 100 µM | – | > 100 µM | – | > 100 µM | – | > 100 µM | – | > 100 µM | – | – | 38.9 µM | –
9 | CCCCCCCCCCCCCCCC(=O)OCC1OC(OCCCC)[C@H](O[C@@H]2OC(C)C(OC(=O)CCC)C(O)C2O)C(O)C1O (stereo partly drawn) | 13.4 µM | 29.6 µM | 16.2 µM | 30.2 µM | 28.3 µM | > 100 µM | 14.1 µM | 28.5 µM | 15.4 µM | 32.8 µM | 18.6 µM | 38.7 µM | 14.2 µM | 27.6 µM | 22.5 µM | 55.7 µM | 15.4 µM | 30.5 µM | – | –
